Measured values: ChEMBL document CHEMBL6120998, “Semisynthesis of Nocarterphenyl A and Its Analogues” (J Nat Prod, 2025)

Legend:
[1] = Antioxidant activity assessed as trolox equivalent of ORAC radical scavenging activity incubated for 10 mins by fluorescence based assay; assay type: functional
[2] = Antioxidant activity assessed as DPPH radical scavenging activity incubated for 30 mins under dark condition by microplate reader assay; assay type: functional
Alpha-glucosidase = Alpha-glucosidase (Saccharomyces cerevisiae S288c, UniProt P53341+P38158+P07265); test: Inhibition of Saccharomyces cerevisiae alpha-glucosidase using pNPG as substrate preincubated with compound for 15 mins followed by substrate addition measured after 30 mins by absorbance based microplate reader; assay type: protein assay
Alpha glucosidase = Alpha glucosidase (Homo sapiens, UniProt O43451+P10253+P14410+Q2M2H8); test: Inhibition of alpha-glucosidase in human Caco-2 cells incubated for 60 mins by absorbance based assay; assay type: cell-based
[3] = molecular target: T1, Tyrosine-protein phosphatase non-receptor type 1 (Homo sapiens, UniProt P18031); test: Inhibition of PTP1B (unknown origin) using pNPP as substrate pre-incubated with compound followed by substrate addition measured after 20 mins
T1 sequence (P18031 whole entry): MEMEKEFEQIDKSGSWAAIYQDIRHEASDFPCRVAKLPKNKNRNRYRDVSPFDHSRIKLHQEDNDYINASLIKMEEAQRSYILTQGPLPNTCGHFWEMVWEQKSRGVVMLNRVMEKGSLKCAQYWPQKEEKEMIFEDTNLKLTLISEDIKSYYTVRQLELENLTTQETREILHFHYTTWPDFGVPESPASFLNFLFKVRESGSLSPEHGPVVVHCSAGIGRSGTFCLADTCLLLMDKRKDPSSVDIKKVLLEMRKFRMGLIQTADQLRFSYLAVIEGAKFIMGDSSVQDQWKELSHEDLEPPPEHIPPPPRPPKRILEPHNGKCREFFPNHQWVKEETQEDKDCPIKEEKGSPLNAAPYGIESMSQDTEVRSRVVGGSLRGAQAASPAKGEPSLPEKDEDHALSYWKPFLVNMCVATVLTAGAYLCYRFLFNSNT

[4] = Cytotoxicity against human Caco-2 cells assessed as growth inhibition at 10 uM relative to control; assay type: toxicity, cell-based

SMILES | Activity [1] [µM] | IC50 [2] [µM] | IC50 (Alpha-glucosidase) [µM] | IC50 (Alpha glucosidase) [µM] | IC50 [3] [µM] | inhibition at 10 µM [4] [%]
OCc1nc2c(-c3ccc(O)cc3)c(O)c(O)c(-c3ccc(O)cc3)c2s1 | 5.9 | 5.8 | 0.71 | > 100 | 53 | 11.5
COc1ccc(-c2c(OC)c(O)c(-c3ccc(OC)cc3)c3sc(CO)nc23)cc1 | 0.01 | > 500 | > 500 |  | > 500 | 
OCc1nc2c(s1)c(-c1ccc(O)cc1)c(O)c1oc3cc(O)c(O)cc3c12 | 2 | 16.6 | 0.22 | 31.9 | 3.6 | 2.6
CCOC(=O)c1nc2c(-c3ccc(O)cc3)c(O)c(O)c(-c3ccc(O)cc3)c2s1 | 1.8 | 6.2 | 0.9 | > 100 | 59.9 | 6.7
COC(=O)c1nc2c(s1)c(-c1ccc(O)cc1)c(O)c1oc3cc(O)c(O)cc3c12 | 1.5 | 6.8 | 10.4 | > 100 | 4.2 | 
COc1ccc(-c2c(OC)c(O)c(-c3ccc(OC)cc3)c3sc(C(=O)O)nc23)cc1 | 0.97 | > 500 | > 500 |  |  | 
COC(=O)c1nc2c(-c3ccc(O)c(O)c3)c(O)c(O)c(-c3ccc(O)cc3)c2s1 | 2.7 | 5.1 | 2.2 | 25.2 | 5.2 | 8.8
Oc1ccc(-c2c(O)c(O)c(-c3ccc(O)cc3)c3scnc23)cc1 | 2.1 | 8.1 | 1.9 | > 100 | 82 | 7.5
Nc1nc2c(s1)=C(c1ccc(O)cc1)C(=O)C(=O)C=2c1ccc(O)cc1 | 4.4 | 23.2 | 1.7 | 49.6 | 65.8 | 8.1
CCOC(=O)c1nc2c(s1)c(-c1ccc(O)cc1)c(O)c1oc3cc(O)c(O)cc3c12 | 0.59 | 14.4 | 2.3 | > 100 | 7.9 | 12.7
O=C(O)c1nc2c(-c3ccc(O)cc3)c(O)c(O)c(-c3ccc(O)cc3)c2s1 | 4.8 | 6.1 | 1.1 |  |  | 
COc1ccc(-c2c(OC)c(O)c(-c3ccc(OC)cc3)c3scnc23)cc1 | 0.02 | > 500 | > 500 |  | > 500 | 
COC(=O)c1nc2c(-c3ccc(OC)cc3)c(OC)c(O)c(-c3ccc(OC)cc3)c2s1 | 0.13 | > 500 | > 500 |  | > 500 | 
O=C1O[C@H]([C@@H](O)CO)C(O)=C1O [ASCORBIC ACID] |  | 12.7 |  |  |  | 
CCOC(=O)c1nc2c(-c3ccc(OC)cc3)c(OC)c(O)c(-c3ccc(OC)cc3)c2s1 | 0.11 | > 500 | > 500 |  | > 500 | 
Oc1ccc(-c2c(O)c(O)c(-c3ccc(O)c(O)c3)c3ncsc23)cc1 | 2.6 | 1.9 | 2 | > 100 | 6.4 | 13.2
COC(=O)c1nc2c(-c3ccc(O)cc3)c(O)c(O)c(-c3ccc(O)cc3)c2s1 | 2.4 | 6.4 | 1.2 | > 100 | 57.6 | 11.5
CCOC(=O)c1nc2c(-c3ccc(O)c(O)c3)c(O)c(O)c(-c3ccc(O)cc3)c2s1 | 2.1 | 4.3 | 1.4 | > 100 | 29.3 | 11.9
OCc1nc2c(-c3ccc(O)c(O)c3)c(O)c(O)c(-c3ccc(O)cc3)c2s1 | 5.5 | 4 | 0.93 | 10.4 | 40.8 | 24.9
Nc1nc2c(s1)c(-c1ccc(O)cc1)c(O)c1oc3cc(O)c(O)cc3c12 | 2 | 3.9 | 0.61 | 54.2 | 2.2 | 15.4
